The values that follow come from a melting point compilation (Tetko et al.; mined from patent text by program, amines drawn as free bases though some values may be those of a salt).

The term melting point denotes the temperature of the solid-liquid transition.

Compound `Cc1cc(C=NNC(N)=S)ncc1N` yielded a melting point of 235 to 236 °C.
Turning to `COc1ccc(F)c(F)c1C=NO`, the melting point lay within 199 to 201 °C.
The value for `c1ccc2oc(-c3ccncc3)nc2c1` was 129 to 131 °C; that for `c1ccc2c(c1)OCC(CN1CCC(CNc3nc4ccccc4s3)CC1)O2` (centres undefined) was 133 °C.
The value for `CN(c1ccncc1)N1CCc2cc(O)ccc2C1` was 263 to 266 °C; that for `COc1cc2c(cc1CCCCN(C)C)[nH]c1cc(-c3ccccc3Cl)c3c(c12)C(=O)NC3=O` was 162 to 164 °C.
Then `O=C(Cc1ccc2c(c1)OCO2)N[C@H]1CC[C@H](CCN2CCN(c3nccc4c3OCC4)CC2)CC1`, with 187 °C; and `CC(C)Nc1c(C#N)cnn1-c1ccc(Cl)c(Cl)c1Cl`, with 141 to 142 °C.
In turn, `Cc1cccc(C)c1OC(C)C(=O)OC1CC(O)C=C2C=CC(C)C(CCC3CC(O)CC(=O)O3)C21` (mixture of isomers) came in with a melting point of 85 to 88 °C.
In turn, `OC1c2ccc(Cl)cc2OCc2cccnc21` (centres undefined) came in with a melting point of 105 to 108 °C.
The value for `Cn1ncnc1COc1nc2c(cc1-c1ccoc1)nnn2-c1ccccc1F` was 145 to 146 °C.
With `CCc1nc2c(c(C)c(C)n3nnnc23)n1CCOCCNS(=O)(=O)CCCCl`, the melting point was 126 to 129 °C.
The value for `Cc1cccc2c(Cl)c(CCCl)nnc12` was 102 to 104 °C.
The value for `CCCCNC(=O)c1ccc(-c2ccc3nnn(Cc4ccc5ncccc5c4)c3n2)cc1F` was 100 to 102 °C; that for `CCOC(=O)c1c(C(=O)OCC)c(-c2ccc3c(c2)OCO3)c2c3c(ccc2c1O)OCO3` was 192 to 194 °C; that for `CC(=O)Nc1nc(O)c2cc(C=Cc3ccc(C(=O)OC(C)=O)cc3)cnc2n1` was greater than 300 °C.
The value for `CC(C)C(C)(C(=O)O)N1C(=O)c2ccccc2C1=O` (centres undefined) was 151 to 152 °C; that for `Cc1c(Cl)cccc1S(=O)(=O)Nc1ccc2onc(C)c2c1` was 163 °C.
For `COc1cc2c(cc1CCNC(=O)c1cc(OC)c(OC)c(OC)c1)CCC2`, the melting point lay within 144 to 145 °C.
Then `CCOc1nc(NC(CC)CC)c([N+](=O)[O-])c(OCC)n1`, with 38 to 40 °C.
`CC1Oc2cc3nc(SCc4ccccn4)[nH]c3cc2O1` yielded a melting point of 155 to 156 °C.
Then `COc1cc(C(=O)N2Cc3ccc(C(=O)NCc4ccccc4C(F)(F)F)n3Cc3ccccc32)ccc1-c1ccccc1C`, with 165 to 167 °C.
Turning to `CCOC(=O)c1oc2ccc(Cl)cc2c1C(=O)OCC`, the melting point was 33 to 35 °C.
`COc1ccc(Cl)cc1C1(F)C(=O)Nc2ccc(C)cc21` (centres undefined) displayed a melting point of 193 to 195 °C.
The value for `C(=C\c1nc(COc2ccc(CCCn3ncnn3)cc2)co1)/c1ccccc1` was 97 to 98 °C.
Then `c1cc2c3c(nnc4c3c1OCC4)CCO2`, with 249 °C; and `CC(C)C(S)C(=O)NC1(C(=O)NC(Cc2ccc(-c3ccc(F)cc3)cc2)C(=O)O)CCCC1` (centres undefined), with 196 to 198 °C; and `CCCCCCCCCCCCCCOCC(COCCCCCCCCCCCCCC)(CC(=O)O)CC(=O)O`, with 84 to 86 °C.
As to `COc1ccc(-c2ccc(C(=O)CCC(=O)O)cc2)cc1`, the melting point is 197 to 199 °C.
Compound `CC(=O)NC1CCN(Cc2ccccc2)C1C` (centres undefined) registered a melting point of 51 to 54 °C.
The value for `OC1OC2CC3CC(C2)OC1O3` (centres undefined) was 185 to 194 °C.
In the case of `O=C1c2ccccc2C(=O)N1CCCOc1ccc(O)cc1`, the melting point was in the range of 135 to 137 °C.
The value for `CC(C)C(=O)Nc1c(N)cc(Br)cc1OCc1ccccc1` was 214 to 215 °C; that for `CC1CN(c2ccc(C(N)=O)cc2)CCN1Cc1cn2cc(Cl)ccc2n1` (racemic) was 202 to 204 °C.
Compound `Fc1cncc(F)c1C1=NC(c2ccc(I)cc2)CO1` (centres undefined) displayed a melting point of 84 to 86 °C.
The value for `CCOC(=O)C1OC1C(=O)N(C)C1CCCCC1` (centres undefined) was 52 to 55 °C; that for `N#CCCNC(=O)c1cccc(-c2cccn3nc(Nc4cccc(C(F)(F)F)c4)nc23)c1` was 214 to 215 °C; that for `CCCc1ccccc1OCC(O)COc1cccc2oc(C(=O)O)cc(=O)c12` (centres undefined) was 168 to 170 °C.
The value for `Cc1c(C(=O)O)c(=O)c(-c2ccccc2)cn1C` was 227 to 228 °C; that for `CNC(=O)Cc1c(C)n(-c2ccnc3cc(Cl)ccc23)c2ccc(OC)cc12` was 168 to 169 °C.
Compound `Cn1nc2cccc(Cl)c2c1S(N)(=O)=O` came in with a melting point of 173 to 175 °C.
Then `CN1CCC(c2nc(-c3ccncc3)c(-c3ccc(F)cc3)[nH]2)CC1`, with 259 to 261 °C.
Then `Nc1ccc2c(c1)C(=O)N(CCO)CO2`, with 94 to 96 °C.
Then `COc1ccc(C(O)CNC(C)Cc2ccc(OCCO)cc2)cc1F` (centres undefined), with 112 to 115 °C.
On to `CCN1C(=O)C2C3CCC(CC3)C2(c2ccc(Cl)c(Cl)c2)C1=O` (centres undefined), for which the melting point lay within 131 to 134 °C.
The value for `CC(c1ccc2c(c1)N(C)c1cc(Cl)ccc1S2)N(O)C(N)=O` (centres undefined) was 176 to 177 °C; that for `CC(=O)NC1CCN(Cc2ccccc2)C1` (centres undefined) was 83 to 85 °C.
Take `CCCN1C[C@H]2CCc3cccc(O)c3[C@H]2C1` (relative stereo): the melting point lay in the range of 180 to 184 °C.
Then `COc1ccc2c(c1)C(Cl)(C(F)(F)F)OC(=O)N2` (centres undefined), with 112 to 114 °C.
The value for `CCCCCCN=C=O` was 68 to 72 °C; that for `CCN(C(=O)c1cc(Cl)c(NC(=O)C(F)(F)F)cc1OC)C1CCN(Cc2ccccc2)CC1` was 198 to 200 °C; that for `OC1Cc2ccccc2Sc2cc(F)c(F)cc21` (centres undefined) was 98 to 100 °C.
`COC(=O)c1ccc2c(c1)C(=O)c1c-2n(CCCNS(=O)(=O)c2ccccc2)c(=O)c2cc(OC)c(OC)cc12`: the melting point is 249 to 251 °C.
The value for `CCCCSCC(=O)c1cc2c(cc1Cl)n(C)c(=O)n2C` was 66 to 68 °C; that for `O=Cc1ccc(-c2cccc(-c3cn([C@H]4CN5CCC4CC5)nn3)c2)s1` was 150 °C.
`Cc1cc(-c2cc(C(F)F)n3ncc(C(=O)O)c3n2)ccc1Cl` returned a melting point of 238 °C.
Then `COC(=O)CCC#Cc1cc(Cl)ccc1NS(=O)(=O)c1ccc(C(F)(F)F)cc1`, with 80 °C; and `COc1ccc(-c2nc(C)c(-c3cccnc3)[nH]2)cc1OC`, with 246 to 248 °C.
Then `COC(=O)C(N)CSCc1ccccc1` (centres undefined), with 84 to 87 °C; and `CCCCCCCCCCCCCCCCNc1ccc(C(=O)OCC2CO2)cc1` (centres undefined), with 86 to 89 °C; and `CCN1c2ncc(COc3cccc4[nH]ccc34)cc2C(=O)N(C)c2ccc(Cl)nc21`, with 183 to 185 °C.
The value for `CC1Cc2ccccc2P1c1ccccc1P(c1ccccc1)c1ccccc1` (single isomer, unassigned; (+)) was 40 to 42 °C; that for `COCN1C(C)=C(C(=O)OCc2ccccc2)C(c2ccccc2C(F)(F)F)C(C(=O)OCc2ccccc2)=C1C` was 94 to 95 °C; that for `CC(C)N(O)C(=O)Nc1cccc(S(C)=O)c1` (centres undefined) was 135 to 136 °C.
For the compound `CCCCCCCN(CCCCCSc1nc(-c2ccccc2)c(-c2ccccc2)[nH]1)c1nc2ccccc2o1`, the melting point is 58 to 60 °C.
Then `O=c1[nH]c2ccc(Br)cc2cc1Cc1ccccc1`, with 263 °C; and `O=Cc1c[nH]c2c1ccc1c3cc([N+](=O)[O-])ccc3[nH]c12`, with greater than 250 °C; and `CCCCCCCCCCn1c(C)cc(C)c(C#N)c1=O`, with 82 to 83 °C.
Then `CC(=NNc1ccc(C2=NNC(=O)CC2)cc1)c1ccc(C#N)cc1`, with 288 to 290 °C.
The value for `O=C(NC12CC3CC(CC(C3)C1)C2)c1nc(Br)n(-c2ccccc2)c1Br` was 228 to 231 °C; that for `CCOC(=O)COc1cccc(N)c1` was 162 to 164 °C; that for `Cn1c(C(F)(F)F)cc(=O)n(-c2ccc3snc(C(C)(C)C(=O)O)c3c2)c1=O` was 155 to 156 °C.
On to `O=C(c1ccc(C(F)(F)F)cc1)N1Cc2c(-c3ccc(F)cc3)ncn2-c2ccccc21`, for which the melting point is 211 to 212 °C.
Then `COc1cc2c(cc1Br)CC(C)N(C(=O)C1CC1)N=C2c1ccc([N+](=O)[O-])cc1` (centres undefined), with 194 to 196 °C; and `COc1ccc(C(=O)C(NCCc2ccc(OC)c(OC)c2Cl)SC)cc1` (centres undefined), with 75 to 78 °C; and `CC(=O)O[C@H]1[C@H](OC(C)=O)[C@@H](CCl)OC[C@@H]1OC(C)=O`, with 129 to 131 °C.
The value for `O=C1Cc2cc(CCCl)ccc2N1` was 168 to 170 °C.
Then `CCOC(=O)C=C(C)C=CC=C(C)C=Cc1c(C)c(CC)c(OC)c(CC)c1C`, with 153 to 154 °C; and `CCCc1c(C(=O)C(C)C)c2ccc(C(=O)O)cc2n1Cc1ccc(F)cc1Cl`, with 243 to 244 °C.
Take `COc1cccc(NC(=O)c2ccccc2C(c2ccc(O)cc2)c2ccc(O)cc2)c1`: the melting point was 106 to 107 °C.
Then `NC(=NCC(F)(F)F)Nc1ccnc(OCCCc2ccccn2)n1`, with 118 to 120 °C; and `O=C(Oc1ccccc1)C1CCCc2ccc([N+](=O)[O-])cc21` (centres undefined), with 83 to 84 °C.
Then `COC(OC)C(C)Nc1cc(OCc2ccccc2)ccc1[N+](=O)[O-]` (centres undefined), with 57 to 62 °C.
The value for `CC1(C)CCC(C)(C)c2cc(-c3cc(-c4ccc(C(=O)O)cc4O)ccc3-c3ccccc3)ccc21` was 183 to 185 °C; that for `O=C(NC1CC1)c1cccc(-c2ccc3c(c2)N(c2ccc(Cl)cc2Cl)CC3)c1` was 215 to 218 °C.
Take `CC1CCN(c2nccc(Oc3ccc(NC(=O)c4cc(F)cc(N5CCCCC5)c4)c4ccccc34)n2)CC1`: the melting point lay within 145 to 146 °C.
Then `CC(CCCc1ccccc1)Oc1cc(O)c2c(c1)NCCC2=O` (centres undefined), with 88 to 90 °C; and `CCN(CCCCCCCCN(CC)S(=O)(=O)c1ccc(C)cc1)S(=O)(=O)c1ccc(C)cc1`, with 112 to 113 °C.
Then `COC1=CC(=O)C2CC(O[Si](C)(C)C)=CC(OC)C2C1=O` (centres undefined), with 108 to 110 °C.
